Test [1] addresses ExoS ADPRT activity (Pseudomonas aeruginosa, UniProt G3XDA1). The test can be described thus: biochemical.
The subject of test [2] is yeast expressing ExoS. Nature of the test: yeast growth recovery of yeast expressing ExoS. Conditions: CUP1 promoter; library screened at 50 µM.
The target of test [3] is ADPRT activity of ExoA (Pseudomonas aeruginosa, UniProt P11439). Nature of the test: biochemical.
Sequence of ADPRT activity of ExoA (P11439 26-638 limits assumed): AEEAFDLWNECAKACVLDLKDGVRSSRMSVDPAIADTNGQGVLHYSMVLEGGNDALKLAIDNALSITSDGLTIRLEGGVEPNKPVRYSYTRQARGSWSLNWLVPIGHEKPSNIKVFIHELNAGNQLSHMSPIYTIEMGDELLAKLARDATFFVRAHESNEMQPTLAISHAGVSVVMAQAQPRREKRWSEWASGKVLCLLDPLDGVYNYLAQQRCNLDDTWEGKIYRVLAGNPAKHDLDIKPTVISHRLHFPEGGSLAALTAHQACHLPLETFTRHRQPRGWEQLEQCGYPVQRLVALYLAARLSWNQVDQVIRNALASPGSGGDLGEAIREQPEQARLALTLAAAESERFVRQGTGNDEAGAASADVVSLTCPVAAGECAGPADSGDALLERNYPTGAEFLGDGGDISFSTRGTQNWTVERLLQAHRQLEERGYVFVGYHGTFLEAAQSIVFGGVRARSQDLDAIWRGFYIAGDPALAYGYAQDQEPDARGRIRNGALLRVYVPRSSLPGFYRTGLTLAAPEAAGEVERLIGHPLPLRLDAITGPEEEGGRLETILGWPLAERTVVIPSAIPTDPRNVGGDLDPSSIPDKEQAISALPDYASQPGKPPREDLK

Sequence of ExoS ADPRT activity (G3XDA1 whole entry, looked up): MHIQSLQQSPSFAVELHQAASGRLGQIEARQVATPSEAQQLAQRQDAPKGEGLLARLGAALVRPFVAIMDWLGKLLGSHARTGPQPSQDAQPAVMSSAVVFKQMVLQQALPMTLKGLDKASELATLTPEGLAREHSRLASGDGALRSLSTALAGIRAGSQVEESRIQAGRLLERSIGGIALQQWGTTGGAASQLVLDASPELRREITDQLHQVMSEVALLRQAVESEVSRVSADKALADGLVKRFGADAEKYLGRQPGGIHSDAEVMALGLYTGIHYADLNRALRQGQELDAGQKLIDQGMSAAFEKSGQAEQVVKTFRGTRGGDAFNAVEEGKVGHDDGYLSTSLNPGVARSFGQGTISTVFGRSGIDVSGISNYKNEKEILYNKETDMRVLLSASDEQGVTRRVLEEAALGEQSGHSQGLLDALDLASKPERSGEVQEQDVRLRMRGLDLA

For orientation: IC50 means the concentration that gives 50% inhibition. In turn, `COc1ccc(-c2cc(=O)c3c(O)cc(O[C@@H]4O[C@H](CO[C@@H]5O[C@@H](C)[C@H](O)[C@@H](O)[C@H]5O)[C@@H](O)[C@H](O)[C@H]4O)cc3o2)cc1O` [Diosmin, reference compound] showed a half-maximal inhibitory concentration (IC50) in test [1] of 3 µM. In test [2], the “restoration of growth of yeast expressing ExoS (in words)” value (“restoration” for short) is on record as “restore yeast growth”.

Take `CCOC(=O)n1c(=O)oc2cc([N+](=O)[O-])ccc21` [0469-0796]: in test [2], the “restoration” value is “restore yeast growth”.

In turn, `CCC1CN(C(=O)Nc2cccc3c2CCCC3)c2ccccc2O1` (stereo not shown) [exosin-5340] had an IC50 in test [1] of 129 µM. In test [2], the “restoration” value is listed as “no protective effect”.

`CCC1CN(C(=O)Nc2ccc(C)cc2)c2ccccc2O1` (stereo not shown) [exosin-5316]: it took 63 µM to reach half-maximal inhibition in test [1] (IC50).

In test [1], `C=CCOC(=O)C1=C(C)NC(SCC(=O)Nc2nccs2)=C(C#N)C1c1cccs1` (stereo not shown) [4296-1011] yielded a 50% inhibitory concentration (IC50) of 6 µM. The “restoration” value in test [2] was “restore yeast growth”.

The compound `CCC1CN(C(=O)Nc2ccc(C)cc2)c2cc(Cl)ccc2O1` (stereo not shown) [exosin-5138] returned a 50% inhibitory concentration (IC50) in test [1] of 12 µM.

With `COc1cc(C)c(C(=O)O)c(O)c1` [Everninic acid], the IC50 in test [1] worked out at 21 µM. Also, in test [2], the “restoration” value was “restore yeast growth”.

One may read the Ki as a measure of affinity in units of concentration, obtained from inhibition or displacement. Read a low Ki as higher affinity. For `CCc1ccc(NC(=O)N2CC(CC)Oc3ccccc32)cc1` (stereo not shown) [exosin], in test [1], the affinity corresponds to a Ki of 33 ± 3 µM and the “mode of inhibition of ExoS ADPRT” value is recorded as “competitive inhibitor”. For the same compound, in test [3], half-maximal inhibition (IC50) was put at 17 µM. For the same compound, the “restoration” value in test [2] is “restore yeast growth”.

Take `COc1cc(O)c(C(=O)/C=C/c2ccccc2)c(OC)c1` [Flavokawain B]: the “restoration” value in test [2] is reported as “restore yeast growth”.

Source of the values: article PMC2265467 (PLoS Genetics, 2008).
